Results published in ChEMBL document CHEMBL1201862, “PubChem BioAssay data set” (2004).
Calls of active or inactive are those of the source.

Assays:
[1] = biological target: NACHT, LRR and PYD domains-containing protein 1 (Homo sapiens, UniProt Q9C000); test: NALP1 inhibitors in yeast, dose response, luminescent (AID 488860); assay type: functional
Saccharomyces cerevisiae = test: NALP1 inhibitor project selectivity study, Caspase-1/ASC signal blockade IC50 in S. cerevisiae (AID 488863); assay type: functional, organism-based
[2] = biological target: T1, Ubiquitin-conjugating enzyme E2 N (Homo sapiens, UniProt P61088); assay type: functional;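 note: Dose-response confirmation in a TR-FRET assay detecting UBC13-driven polyubiquitin chain formation, inhibition measured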
T1 sequence (P61088 whole entry): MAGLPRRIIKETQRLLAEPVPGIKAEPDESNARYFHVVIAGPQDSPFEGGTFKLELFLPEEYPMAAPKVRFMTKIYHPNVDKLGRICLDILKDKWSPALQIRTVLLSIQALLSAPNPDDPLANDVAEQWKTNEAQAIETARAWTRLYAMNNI

[3] = biological target: Female germline-specific tumor suppressor gld-1 (Caenorhabditis elegans, UniProt Q17339); test: inhibitors of GLD-1 binding to TGE RNA, dose response, biochemical, fluorescence polarization, C. elegans (AID 2802);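 note: fluorescence polarization of labeled TGE RNA bound by purified gld-1 protein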
Sequence of Female germline-specific tumor suppressor gld-1 (Q17339 whole entry): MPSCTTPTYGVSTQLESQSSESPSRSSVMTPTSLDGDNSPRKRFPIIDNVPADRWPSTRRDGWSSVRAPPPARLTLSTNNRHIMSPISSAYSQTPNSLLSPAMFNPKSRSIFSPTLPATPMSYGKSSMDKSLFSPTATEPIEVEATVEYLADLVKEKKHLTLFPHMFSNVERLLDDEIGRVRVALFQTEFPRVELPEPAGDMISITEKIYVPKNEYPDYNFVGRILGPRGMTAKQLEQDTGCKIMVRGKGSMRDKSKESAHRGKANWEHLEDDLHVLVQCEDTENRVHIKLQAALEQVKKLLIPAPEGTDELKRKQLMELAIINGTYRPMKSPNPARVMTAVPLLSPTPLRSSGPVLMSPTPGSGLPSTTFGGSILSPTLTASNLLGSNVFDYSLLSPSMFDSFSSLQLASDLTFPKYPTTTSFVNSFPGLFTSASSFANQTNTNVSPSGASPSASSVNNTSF

Protein Rev = Protein Rev (Human immunodeficiency virus type 1 group M subtype B (isolate HXB2)(HIV-1), UniProt P04618); test: inhibitors of Rev binding to RRE RNA, dose response, biochemical, fluorescence polarization, HIV-1 (AID 434976); set-up: species or system Human immunodeficiency virus 1
Sequence of Protein Rev (P04618 whole entry): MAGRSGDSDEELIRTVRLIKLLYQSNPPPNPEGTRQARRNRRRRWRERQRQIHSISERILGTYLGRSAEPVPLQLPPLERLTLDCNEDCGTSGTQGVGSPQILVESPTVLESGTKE

[4] = biological target: T2, Short transient receptor potential channel 4 (Mus musculus, UniProt Q9QUQ5); test: mouse TRPC4 channel activators, dose response, cell-based, HEK293 TRPC4/mu-opioid, Fluo-4 calcium (AID 434937); assay type: functional
T2 sequence (Q9QUQ5 whole entry): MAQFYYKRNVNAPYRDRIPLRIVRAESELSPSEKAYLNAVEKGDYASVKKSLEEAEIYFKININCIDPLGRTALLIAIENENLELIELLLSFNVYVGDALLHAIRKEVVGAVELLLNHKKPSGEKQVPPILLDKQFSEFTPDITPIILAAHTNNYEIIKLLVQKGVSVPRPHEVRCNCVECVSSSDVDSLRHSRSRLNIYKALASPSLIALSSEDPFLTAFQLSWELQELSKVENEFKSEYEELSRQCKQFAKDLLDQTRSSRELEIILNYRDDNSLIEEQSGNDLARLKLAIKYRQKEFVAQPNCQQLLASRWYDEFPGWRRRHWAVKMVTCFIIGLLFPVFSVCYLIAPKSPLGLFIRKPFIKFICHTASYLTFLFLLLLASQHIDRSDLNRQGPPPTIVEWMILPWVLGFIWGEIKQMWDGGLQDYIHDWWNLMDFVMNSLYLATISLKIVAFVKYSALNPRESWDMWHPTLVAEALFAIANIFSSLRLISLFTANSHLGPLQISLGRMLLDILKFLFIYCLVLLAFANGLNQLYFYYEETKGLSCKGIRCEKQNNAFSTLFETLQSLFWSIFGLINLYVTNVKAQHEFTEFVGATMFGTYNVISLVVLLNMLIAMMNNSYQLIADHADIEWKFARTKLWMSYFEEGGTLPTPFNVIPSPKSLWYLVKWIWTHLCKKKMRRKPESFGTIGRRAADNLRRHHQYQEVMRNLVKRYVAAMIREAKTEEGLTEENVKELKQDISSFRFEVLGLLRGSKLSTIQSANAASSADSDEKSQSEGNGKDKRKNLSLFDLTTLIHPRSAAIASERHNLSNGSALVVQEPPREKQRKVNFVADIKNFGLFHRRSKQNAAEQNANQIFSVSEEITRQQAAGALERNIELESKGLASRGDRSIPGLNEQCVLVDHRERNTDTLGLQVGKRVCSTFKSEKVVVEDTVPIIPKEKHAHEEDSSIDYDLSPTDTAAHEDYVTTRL

Nonstructural protein 1 = Nonstructural protein 1 (Influenza A virus, UniProt Q194T2); assay type: functional, Influenza A virus (A/California/07/2009(H1N1))
Sequence of Nonstructural protein 1 (Q194T2 whole entry): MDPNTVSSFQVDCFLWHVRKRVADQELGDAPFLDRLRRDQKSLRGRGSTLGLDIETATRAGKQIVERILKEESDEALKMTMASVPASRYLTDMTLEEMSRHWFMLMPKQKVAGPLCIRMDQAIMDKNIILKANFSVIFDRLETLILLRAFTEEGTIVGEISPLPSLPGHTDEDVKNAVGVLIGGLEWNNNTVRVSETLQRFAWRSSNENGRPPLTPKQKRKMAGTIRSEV

Coagulation factor XII = biological target: T3, Coagulation factor XII (Homo sapiens, UniProt P00748); test: FXIIa inhibitor potency, concentration-response, biochemical (AID 716); assay type: functional
T3 sequence (P00748 whole entry): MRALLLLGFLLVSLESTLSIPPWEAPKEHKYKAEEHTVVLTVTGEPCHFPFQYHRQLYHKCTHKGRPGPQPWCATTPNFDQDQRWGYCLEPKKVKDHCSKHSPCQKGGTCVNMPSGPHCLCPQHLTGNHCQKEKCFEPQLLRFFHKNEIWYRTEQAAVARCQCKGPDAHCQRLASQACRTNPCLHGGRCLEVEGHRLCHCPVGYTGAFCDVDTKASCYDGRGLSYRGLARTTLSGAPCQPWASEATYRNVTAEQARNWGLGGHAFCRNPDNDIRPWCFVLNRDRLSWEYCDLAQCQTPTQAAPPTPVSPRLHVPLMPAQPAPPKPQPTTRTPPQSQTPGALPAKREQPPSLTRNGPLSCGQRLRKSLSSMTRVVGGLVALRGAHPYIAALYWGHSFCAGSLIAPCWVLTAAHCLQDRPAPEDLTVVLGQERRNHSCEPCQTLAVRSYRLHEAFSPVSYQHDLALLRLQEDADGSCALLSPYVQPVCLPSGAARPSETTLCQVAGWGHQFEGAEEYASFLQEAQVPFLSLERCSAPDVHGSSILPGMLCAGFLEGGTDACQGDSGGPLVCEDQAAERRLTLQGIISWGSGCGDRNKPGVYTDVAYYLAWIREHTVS

Sequence of NACHT, LRR and PYD domains-containing protein 1 (Q9C000 1-1212 limits assumed): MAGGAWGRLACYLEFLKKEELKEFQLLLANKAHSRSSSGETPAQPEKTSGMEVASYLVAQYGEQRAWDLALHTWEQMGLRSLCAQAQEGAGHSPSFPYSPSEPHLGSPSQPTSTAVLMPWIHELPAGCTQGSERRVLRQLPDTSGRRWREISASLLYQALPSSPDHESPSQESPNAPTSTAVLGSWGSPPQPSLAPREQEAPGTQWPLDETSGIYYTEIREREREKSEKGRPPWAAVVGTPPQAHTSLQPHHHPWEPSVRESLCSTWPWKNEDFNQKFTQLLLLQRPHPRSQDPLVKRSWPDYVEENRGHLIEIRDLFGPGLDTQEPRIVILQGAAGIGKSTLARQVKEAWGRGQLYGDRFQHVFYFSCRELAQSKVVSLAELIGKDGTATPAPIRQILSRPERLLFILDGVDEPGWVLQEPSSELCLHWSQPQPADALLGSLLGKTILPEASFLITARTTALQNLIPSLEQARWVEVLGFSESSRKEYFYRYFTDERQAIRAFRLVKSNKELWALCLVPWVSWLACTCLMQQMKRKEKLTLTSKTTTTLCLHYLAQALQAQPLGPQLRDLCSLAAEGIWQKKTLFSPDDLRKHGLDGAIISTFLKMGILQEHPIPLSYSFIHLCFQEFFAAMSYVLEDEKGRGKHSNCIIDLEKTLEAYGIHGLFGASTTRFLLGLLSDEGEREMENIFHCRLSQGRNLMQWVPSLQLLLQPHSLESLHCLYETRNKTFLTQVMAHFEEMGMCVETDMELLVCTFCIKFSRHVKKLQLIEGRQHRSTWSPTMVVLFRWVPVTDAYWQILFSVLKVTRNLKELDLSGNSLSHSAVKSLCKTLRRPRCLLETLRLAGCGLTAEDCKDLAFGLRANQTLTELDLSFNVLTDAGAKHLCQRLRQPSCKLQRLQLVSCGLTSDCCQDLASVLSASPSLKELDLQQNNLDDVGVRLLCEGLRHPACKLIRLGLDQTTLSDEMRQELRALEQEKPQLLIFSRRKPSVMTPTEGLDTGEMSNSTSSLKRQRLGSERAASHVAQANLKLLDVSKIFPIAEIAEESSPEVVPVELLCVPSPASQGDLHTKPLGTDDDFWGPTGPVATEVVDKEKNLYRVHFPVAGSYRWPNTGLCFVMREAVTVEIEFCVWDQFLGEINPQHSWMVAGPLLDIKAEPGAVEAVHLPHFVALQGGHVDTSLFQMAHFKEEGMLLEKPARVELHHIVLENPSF
Sequence of NACHT, LRR and PYD domains-containing protein 1 (Q9C000 1213-1473 limits assumed): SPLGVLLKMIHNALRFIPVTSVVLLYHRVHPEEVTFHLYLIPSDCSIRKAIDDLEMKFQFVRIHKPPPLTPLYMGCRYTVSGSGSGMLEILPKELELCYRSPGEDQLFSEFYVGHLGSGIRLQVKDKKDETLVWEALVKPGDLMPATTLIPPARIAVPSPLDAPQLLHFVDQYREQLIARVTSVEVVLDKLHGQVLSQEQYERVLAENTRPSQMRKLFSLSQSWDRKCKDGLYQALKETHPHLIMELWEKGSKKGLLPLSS

Q: `Cc1ccc2nc(N(CCCN(C)C)C(=O)c3sc4ccccc4c3Cl)sc2c1` was tested. Which IC50 [1] did it give?
A: Its IC50 is 16.9 µM (active).

Q: What about the IC50 (Saccharomyces cerevisiae) of the same molecule?
A: The IC50 was 6.52 µM (active).

Q: And the IC50 [2]?
A: Its IC50 is > 20 µM (inactive).

Q: With `Cc1ccc(N2CCN(c3ccc(NCc4nc5ccccc5n4C)cc3)CC2)cc1` as the molecule, how does the IC50 [3] read?
A: The IC50 was > 2.21 µM (active).

Q: And the IC50 (Protein Rev)?
A: Its IC50 is 19.6 µM (not active).

Q: And the EC50 [4]?
A: Its EC50 is 1.06 µM (active).

Q: What about the IC50 (Nonstructural protein 1) of the same molecule?
A: Its IC50 is 75.6 µM (active).

Q: How did the IC50 (Coagulation factor XII) turn out when `COc1cc(NC(=O)COc2cccc(OC)c2)cc(OC)c1` was run?
A: Its IC50 is > 50 µM (inactive).
